Data: US20250296959A1, “B7-H3 TARGETING PEPTIDES AND CONSTRUCTS THEREOF” (Mariana Oncology Inc., priority 2024, published 2025)
Starred links: 1 amine or outer side, 2 acyl side, 3 side chain; linkers in the order of their positions; H or OH if unused. Positions of bridges follow the written chain, without caps; N, C: chain ends. Non-standard residues stand in square brackets, D forms with d. Residues, ends and D or L forms follow the SMILES beside them. Groups on a side chain read outwards from the residue. *: point of attachment. Ala(piperidin-4-yl) = O=C([C@H](CC1CCN([*:3])CC1)N[*:1])[*:2]; DOTA = O=C(O)CN1CCN(CC(=O)O)CCN(CC(=O)*)CCN(CC(=O)O)CC1; Trp(5-F) = N[C@@H](Cc1c[nH]c2ccc(F)cc12)C(=O)O; X1 = C[C@@H](c1ccccc1)[C@H](N[*:1])C(=O)[*:2]; γGlu = O=C(O)[C@H](CCC(=O)[*:2])N[*:1]; Ala(4-THP) = N[C@@H](CC1CCOCC1)C(=O)O; Lys(Me2) = CN(C)CCCC[C@H](N)C(=O)O; Val(3-OH) = CC(C)(O)[C@H](N)C(=O)O; PEG4 = NCCOCCOCCOCCOCCC(=O)O; Tle = CC(C)(C)[C@H](N)C(=O)O; hLeu = CC(C)CC[C@H](N)C(=O)O

What was measured:
2Ig B7-H3 = biological target: T1, 2Ig B7-H3 (Homo sapiens, UniProt Q5ZPR3); experiment: SPR binding affinity to 2Ig B7-H3; settings: 37° C.; read-out: 2Ig B7-H3_KD (nM) at 37° C.
T1 sequence (Q5ZPR3 29-316 isoform Q5ZPR3-2 limits assumed): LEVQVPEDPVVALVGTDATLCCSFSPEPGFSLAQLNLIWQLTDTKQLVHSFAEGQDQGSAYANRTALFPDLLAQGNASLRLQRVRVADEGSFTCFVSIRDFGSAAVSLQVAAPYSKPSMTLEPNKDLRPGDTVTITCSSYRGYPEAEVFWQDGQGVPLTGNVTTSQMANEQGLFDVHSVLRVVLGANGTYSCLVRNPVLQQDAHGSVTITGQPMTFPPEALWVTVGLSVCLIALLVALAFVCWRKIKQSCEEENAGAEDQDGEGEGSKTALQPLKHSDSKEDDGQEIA

human 4lg B7-H3 = biological target: T2, human 4lg B7-H3 (Homo sapiens, UniProt Q5ZPR3); experiment: Affinity determination by surface plasmon resonance (SPR) to 4Ig B7-H3; settings: SPR KD—37° C., 4Ig B7-H3; 37° C. flow cell temperature
T2 sequence (Q5ZPR3 29-534): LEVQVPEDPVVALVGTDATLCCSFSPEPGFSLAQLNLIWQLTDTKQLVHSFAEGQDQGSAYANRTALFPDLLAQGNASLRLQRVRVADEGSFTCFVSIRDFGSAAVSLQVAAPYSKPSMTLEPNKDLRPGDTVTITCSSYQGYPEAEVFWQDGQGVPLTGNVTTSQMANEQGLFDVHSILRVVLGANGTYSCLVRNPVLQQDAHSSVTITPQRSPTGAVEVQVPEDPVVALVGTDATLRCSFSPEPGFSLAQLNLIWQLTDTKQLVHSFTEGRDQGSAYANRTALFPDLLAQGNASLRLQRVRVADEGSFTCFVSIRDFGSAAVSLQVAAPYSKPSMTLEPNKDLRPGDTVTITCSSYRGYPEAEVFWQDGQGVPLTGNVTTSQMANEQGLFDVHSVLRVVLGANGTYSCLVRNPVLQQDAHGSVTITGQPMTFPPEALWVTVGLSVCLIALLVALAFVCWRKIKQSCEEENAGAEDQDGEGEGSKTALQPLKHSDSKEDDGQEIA

Compound | Kd (2Ig B7-H3) [nM] | Kd (human 4lg B7-H3) [nM]
CC(=O)N[C@@H](CCC(C)C)C(=O)N[C@@H](Cc1ccc(O)cc1)C(=O)N[C@H]1CSSC[C@@H](C(=O)N[C@@H](Cc2c[nH]c3ccc(F)cc23)C(=O)N[C@H](C(=O)N[C@H](C(=O)N[C@H](C)C(=O)O)C(C)(C)O)[C@@H](C)c2ccccc2)NC(=O)[C@H](Cc2ccc(O)cc2)NC(=O)[C@H](C(C)C)NC(=O)[C@H](CC(=O)O)NC(=O)[C@H](CC2CCN(C(=O)CCOCCOCCOCCOCCNC(=O)CN3CCN(CC(=O)O)CCN(CC(=O)O)CCN(CC(=O)O)CC3)CC2)NC(=O)[C@H](CCCCN(C)C)NC(=O)CNC(=O)[C@H](C(C)(C)C)NC1=O [compound 521, Ac-hLeu-Y-C-Tbg-G-Lys(Me)2-Pip(PEG4-DOTA)Ala-D-V-Y-C-5FW-[(2S, 3S)beta-Me-Phe]-hydroxyVal-dAla-COOH] (Ac-[hLeu]YC[Tle]G[Lys(Me2)][Ala(piperidin-4-yl)]([PEG4-DOTA])DVYC[Trp(5-F)][X1][Val(3-OH)][dA]-OH; disulfide 3-11) | 260 | < 1
CC(=O)N[C@@H](CCC(C)C)C(=O)N[C@@H](Cc1ccc(O)cc1)C(=O)N[C@H]1CSSC[C@@H](C(=O)N[C@@H](Cc2c[nH]c3ccc(F)cc23)C(=O)N[C@@H](Cc2ccccc2)C(=O)N[C@H](C(=O)N[C@H](CCC(=O)O)C(N)=O)C(C)(C)O)NC(=O)[C@H](Cc2ccc(O)cc2)NC(=O)[C@H](C(C)C)NC(=O)[C@H](CC(=O)O)NC(=O)[C@H](CC2CCOCC2)NC(=O)[C@H](CC2CCN(C(=O)CC[C@H](NC(=O)CN3CCN(CC(=O)O)CCN(CC(=O)O)CCN(CC(=O)O)CC3)C(=O)O)CC2)NC(=O)CNC(=O)[C@H](C(C)(C)C)NC1=O [compound 475, Ac-hLeu-Y-C-Tbg-G-Pip(gE-DOTA)Ala-ThpA-D-V-Y-C-5FW-F-hydroxyVal-dGlu-CONH2] (Ac-[hLeu]YC[Tle]G[Ala(piperidin-4-yl)]([γGlu-DOTA])[Ala(4-THP)]DVYC[Trp(5-F)]F[Val(3-OH)][dE]-NH2; disulfide 3-11) | > 10000 | 1 to 10
CC(=O)N[C@@H](CCC(C)C)C(=O)N[C@@H](Cc1ccc(O)cc1)C(=O)N[C@H]1CSSC[C@@H](C(=O)N[C@@H](Cc2c[nH]c3ccc(F)cc23)C(=O)N[C@@H](Cc2ccccc2)C(=O)N[C@H](C(=O)O)C(C)(C)O)NC(=O)[C@H](Cc2ccc(O)cc2)NC(=O)[C@H](C(C)C)NC(=O)[C@H](CC(=O)O)NC(=O)[C@H](CC2CCN(C(=O)CN3CCN(CC(=O)O)CCN(CC(=O)O)CCN(CC(=O)O)CC3)CC2)NC(=O)[C@H](CCCCN)NC(=O)CNC(=O)[C@H](C(C)(C)C)NC1=O [compound 344, Ac-hLeu-Y-C-Tbg-G-K-Pip(DOTA)Ala-D-V-Y-C-5FW-F-hydroxyVal-COOH] (Ac-[hLeu]YC[Tle]GK[Ala(piperidin-4-yl)](DOTA)DVYC[Trp(5-F)]F[Val(3-OH)]-OH; disulfide 3-11) | 6200 | 1 to 10
